# Measurements published in patent US5130139A, “Reduction or prevention of skin irritation by drugs” (Alza Corporation, priority 1990, dated 1992).
# Where two headings read alike, the source gives them in different places.
# Experiments:
# human skin fibroblasts [1] = assay: in vitro
# Source text: (§1) The following examples are offered to illustrate the practice of the present invention. It is important to note that this invention is not limited to any particular transdermal device or other form of transdermal delivery, as are commonly known in the art. Nor is this invention limited to a particular formulation. Therefore, the embodiments described herein are merely illustrative and are not intended to limit the scope of the invention in any manner.
# (§2) Four beta-adrenergic blocking drugs (propranolol, labetalol, pindolol and timolol) were tested for their uptake and their toxicity in human skin fibroblasts.
# (§3) To estimate the toxicity of the tested compounds, the general procedure of the MTT assay (Swisher et al., Models Dermatol., Maibach and Lowe (eds.), Basel, Karger, vol. 4, pp 131-137, 1989) was used. Cell cultures of fibroblasts were incubated for 16 hours in medium containing a range of concentrations of the drug being tested. At the end of the incubation time, the medium was removed and replaced with medium containing MTT at 0.5 mg/ml. After 3 hours, this medium was discarded and the blue formazan, a metabolite of MTT produced only by viable cells, was dissolved in acidified isopropanol. Absorbance of this solution was measured at 540 nm against a reference wavelength of 660 nm. Results were then expressed as percent of control cultures incubated in the same conditions without drug or agent.
# (§4) The treated cells were also tested for the cytotoxic effect of propranolol in the presence of various concentrations of monensin, following the procedures of Example 1.
# (§5) They were tested with 10^-6 M monensin.
# (§6) In the Table, the "factor of protection" is the ratio of the ID50 of the toxic drug incubated with monensin to the ID50 of the toxic drug alone.
# (§7) The action of various ionophores and amphiphilic amines on the cytotoxicity of propranolol and chloroquine was determined, following the procedures of Example 1. The "factor of protection" corresponds to the ratio of the ID50 of the toxic drug incubated with uptake-inhibiting agent at the indicated concentration, to the ID50 of the toxic drug alone. The "mode of action" indicates either the ions which are preferentially carried by the tested ionophores or that the agent acts by competition.
# lysosomes = details: literature; cited from earlier work
# [2] = In vitro permeation through human epidermis from gels; format: in vitro ADME; details: gels of Example 5; 37° C.; sampled at 3, 8 and 24 hours
# Experimental: Circular pieces of human epidermis were mounted in horizontal permeation cells (1.13 cm^2 of effective permeating surface) with the stratum corneum facing the donor compartment of the cell. A known volume (20-23 ml) of 0.2M TRIS buffer pH 7.5 (the receptor solution) was placed in the receptor compartment. The cell was then placed in a water bath-shaker at 37° C. and allowed to equilibrate. A 0.2 ml aliquot of the tested formulation was transferred to the donor compartment. Occlusion was achieved by the use of a teflon film in contact with the formulation. At 3, 8 and 24 hours, the receptor solutions were removed and replaced with equal volumes of fresh receptor solution previously equilibrated at 37° C. Chloroquine was quantified in the samples by fluorometrical measurements. These were carried out at room temperature in a Perkin-ElmerLS-5B luminescence spectrometer. The samples were adjusted to pH 8.65 at a final TRIS concentration of 0.1M and 30% (vol/vol) ethanol. The excitation wavelength was 333 nm and the emission wavelength was 382 nm. Chloroquine concentrations were extrapolated by comparison with a standard curve obtained under the same conditions. […] For each formulation condition, eight permeation cells were used. Results are presented as the means with their associated standard error.
# in vitro = details: human, skin fibroblasts
# Source text: as §1, §2, §3, §4, §5, §6, §7
# [3] = system: skin irritation (erythema), volar forearm; assay: In vivo skin irritation (erythema, Minolta Chromameter) after 16 h application of gel to volar forearm; parameters: species or system human; details: monensin 5.0 wt % with chloroquine 1.0 wt % gel
# Experimental: The resulting gels were buffered to pH 8.5 with EPPS buffer and contained 30 wt % ethanol to maintain the solubility of the drug.
# All of the gels were placed in such manner. After 16 hours, each cup was removed and the site was washed. At various times thereafter the sites were observed and the intensity of the irritant reaction (the erythema) was scored by measuring skin color with an electronic instrument, the Minolta Chromameter.
# human skin fibroblasts [4] = assay: Uptake/accumulation of radiolabelled drug in fibroblasts, 16 h incubation; format: cell-based
# Experimental: For the uptake studies, cell cultures of fibroblasts were exposed to medium containing the radioactive-labelled drug and incubated for 16 hours. The uptake process was then stopped by removing the medium and rapidly washing the cells with cold PBS three times. The cells were then extracted with methanol which was transferred to counting vials, and the amount of radioactivity was measured by liquid scintillation. To compensate for non-specific binding to the plastic of the wells, wells containing no cells were incubated with the radiolabelled drugs under the same conditions. The radioactive content of those wells was taken as the control value and substracted form the radioactive content of the wells containing cells.
# Fibroblast cell cultures were incubated for 16 hours in propranolol (2×10^-7 M) with various concentrations of monensin. The accumulation of propranolol in the cells was then determined, following the procedures of Example 1. […] At 10^-5 M monensin, propranolol uptake was negligible even though the cells were fully viable.
# [5] = against chloroquine cytotoxicity, agent 10^-5 M
# [6] = against propranolol cytotoxicity, agent 10^-5 M
# [7] = against chloroquine cytotoxicity, agent 10^-2 M
compound,measurement,setting,value
C1COCCOCCOCCOCCO1 [15-Crown-5],"Factor of Protection, Chloroquine (ID50 with agent / ID50 alone)",human skin fibroblasts [1],1
same,"Factor of Protection, Propranolol (ID50 with agent / ID50 alone)",human skin fibroblasts [1],1
"Oc1ccc2ccccc2c1-c1c(O)ccc2ccccc12 [(R)(+)-1,1'-bi-2-Naphthol, (R)(+)-1,1'-bi-2-naphthol]","Factor of Protection, Chloroquine (ID50 with agent / ID50 alone)","human skin fibroblasts [1]; against chloroquine cytotoxicity, agent 3.5 × 10^-5 M",2.9
CNc1ccc2oc(C[C@H]3O[C@@]4(CC[C@H]3C)O[C@H]([C@H](C)C(=O)c3ccc[nH]3)[C@H](C)C[C@H]4C)nc2c1C(=O)O [A23187],"Factor of Protection, Chloroquine (ID50 with agent / ID50 alone)","human skin fibroblasts [1]; against chloroquine cytotoxicity, agent 10^-6 M",11
same,"Factor of Protection, Propranolol (ID50 with agent / ID50 alone)","human skin fibroblasts [1]; against propranolol cytotoxicity, agent 10^-6 M",1
"N#CC(C#N)=NNc1cccc(Cl)c1 [Carbonyl cyanide m-chlorophenylhydrazone, carbonyl cyanide m-chlorophenylhydrazone]","Factor of Protection, Chloroquine (ID50 with agent / ID50 alone)",human skin fibroblasts [1]; [5],13
same,"Factor of Protection, Propranolol (ID50 with agent / ID50 alone)",human skin fibroblasts [1]; [6],1
"CCN(CC)CCCC(C)Nc1ccnc2cc(Cl)ccc12 (stereo not shown) [Chloroquine, chloroquine]",Accumulation in lysosomes,lysosomes,have been shown to accumulate in lysosomes
same,Permeation through human epidermis with versus without ammonium chloride,[2],the same
same,CC50 at 16 h,"in vitro; ID50 (M), Drug + Monensin",0.0007 M
same,CC50 at 16 h,"in vitro; ID50 (M), Drug Alone",7e-05 M
same,Factor of Protection (ID50 with monensin / ID50 alone),human skin fibroblasts [1],10.0
same,"Factor of Protection, Propranolol (ID50 with agent / ID50 alone)",human skin fibroblasts [1],1
CN(C)CCCN1c2ccccc2Sc2ccc(Cl)cc21 [Chlorpromazine],CC50 at 16 h,"in vitro; ID50 (M), Drug + Monensin, Table A, with 10^-6 M monensin, 16 h",1.6e-05 M
same,CC50 at 16 h,"in vitro; ID50 (M), Drug Alone, Table A, 16 h",1e-05 M
same,Factor of Protection (ID50 with monensin / ID50 alone),human skin fibroblasts [1],1.6
CN1CCC[C@@H]1CCO[C@](C)(c1ccccc1)c1ccc(Cl)cc1 [Clemastine],Factor of Protection (ID50 with monensin / ID50 alone),human skin fibroblasts [1],1.2
OCCNCCO [Diethanolamine],"Factor of Protection, Chloroquine (ID50 with agent / ID50 alone)",human skin fibroblasts [1],1.5
CCNCC [Diethylamine],"Factor of Protection, Chloroquine (ID50 with agent / ID50 alone)",human skin fibroblasts [1]; [7],3.3
NCCO [Ethanolamine],"Factor of Protection, Chloroquine (ID50 with agent / ID50 alone)",human skin fibroblasts [1],6.4
CN(C)CCCN1c2ccccc2CCc2ccccc21 [Imipramine],CC50 at 16 h,"in vitro; ID50 (M), Drug + Monensin",0.00027 M
same,CC50 at 16 h,"in vitro; ID50 (M), Drug Alone",0.00019 M
same,Factor of Protection (ID50 with monensin / ID50 alone),human skin fibroblasts [1],1.4
CC(C)N [Isopropylamine],"Factor of Protection, Chloroquine (ID50 with agent / ID50 alone)",human skin fibroblasts [1]; [7],6.2
"CC[C@@]1([C@@H]2O[C@@H]([C@H]3O[C@@](O)(CO)[C@H](C)C[C@@H]3C)C[C@@H]2C)CC[C@H]([C@]2(C)CC[C@]3(C[C@H](O)[C@@H](C)[C@@H]([C@@H](C)[C@@H](OC)[C@H](C)C(=O)O)O3)O2)O1 [Monensin, monensin]",Effect of monensin on toxicity of five weak base drugs,"human skin fibroblasts [1]; 10^-6 M monensin, clemastine, imipramine, chlorpromazine, quinacrine, chloroquine",reduced the toxicity of all the drugs
same,"Factor of Protection, Chloroquine (ID50 with agent / ID50 alone)",human skin fibroblasts [1]; [5],19
same,"Factor of Protection, Propranolol (ID50 with agent / ID50 alone)","human skin fibroblasts [1]; against propranolol cytotoxicity, agent 10^-5 M, pre-treatment of 2 hours with agent",1.41
same,Effect of monensin on propranolol toxicity,human skin fibroblasts [1]; monensin 10^-8 M to 10^-5 M,dose-dependent decrease of propranolol toxicity
same,Effect of monensin on irritant reaction (erythema),[3],reduced the irritant reaction
same,Propranolol uptake at 10^-5 M monensin,"human skin fibroblasts [4]; propranolol 2×10^-7 M, monensin 10^-5 M",negligible
same,Effect of monensin on propranolol uptake in the cells,"human skin fibroblasts [4]; propranolol 2×10^-7 M, monensin 10^-8 M to 10^-5 M",decreased propranolol uptake in the cells in a dose-dependent manner
same,Viability of cells at 10^-5 M monensin,"human skin fibroblasts [4]; with propranolol 2×10^-7 M, monensin 10^-5 M",fully viable
CO[C@@H]1C[C@@H](C[C@H]2CC[C@H](C)[C@H]([C@@H](C)C(=O)O)O2)O[C@]2(O[C@](C)([C@H]3CC[C@@](C)([C@@H]4O[C@@H]([C@H]5O[C@@](O)(CO)[C@H](C)C[C@@H]5C)C[C@@H]4C)O3)C[C@H]2C)[C@@H]1C [Nigericin],"Factor of Protection, Chloroquine (ID50 with agent / ID50 alone)","human skin fibroblasts [1]; against chloroquine cytotoxicity, agent 1.5 × 10^-7 M",11
C[C@@H]1C[C@H]2CC[C@H](O2)[C@H](C)C(=O)O[C@@H](C)C[C@@H]2CC[C@@H](O2)[C@@H](C)C(=O)O[C@H](C)C[C@H]2CC[C@H](O2)[C@H](C)C(=O)O[C@@H](C)C[C@@H]2CC[C@@H](O2)[C@@H](C)C(=O)O1 [Nonactin],"Factor of Protection, Chloroquine (ID50 with agent / ID50 alone)","human skin fibroblasts [1]; against chloroquine cytotoxicity, agent 5 × 10^-6 M",26
same,"Factor of Protection, Propranolol (ID50 with agent / ID50 alone)","human skin fibroblasts [1]; against propranolol cytotoxicity, agent 5 × 10^-6 M",1
"CC(C)NCC(O)COc1cccc2ccccc12 (stereo not shown) [Propranolol, propranolol]",Accumulation in lysosomes,lysosomes,have been shown to accumulate in lysosomes
same,CC50 at 16 h,"in vitro; ID50 (concentration of drug required to kill 50% of the cells), drug alone",0.00028 M
same,CC50 at 16 h,"in vitro; ID50 (concentration of drug required to kill 50% of the cells), drug with monensin",0.00038 M
same,"Factor of Protection, Chloroquine (ID50 with agent / ID50 alone)",human skin fibroblasts [1],1.8
CCN(CC)CCCC(C)Nc1c2ccc(Cl)cc2nc2ccc(OC)cc12 (stereo not shown) [Quinacrine],CC50 at 16 h,"in vitro; ID50 (M), Drug + Monensin",4.2e-05 M
same,CC50 at 16 h,"in vitro; ID50 (M), Drug Alone",1.3e-05 M
same,Factor of Protection (ID50 with monensin / ID50 alone),human skin fibroblasts [1],3.2
NC(CO)(CO)CO [Tromethamine],"Factor of Protection, Chloroquine (ID50 with agent / ID50 alone)",human skin fibroblasts [1],1.2
CC(C)[C@@H]1NC(=O)[C@H](C)OC(=O)[C@@H](C(C)C)NC(=O)[C@@H](C(C)C)OC(=O)[C@H](C(C)C)NC(=O)[C@H](C)OC(=O)[C@@H](C(C)C)NC(=O)[C@@H](C(C)C)OC(=O)[C@H](C(C)C)NC(=O)[C@H](C)OC(=O)[C@@H](C(C)C)NC(=O)[C@@H](C(C)C)OC1=O [Valinomycin],"Factor of Protection, Chloroquine (ID50 with agent / ID50 alone)",human skin fibroblasts [1]; [5],13
same,"Factor of Protection, Propranolol (ID50 with agent / ID50 alone)",human skin fibroblasts [1]; [6],1
Ammonium chloride,"Factor of Protection, Chloroquine (ID50 with agent / ID50 alone)","human skin fibroblasts [1]; against chloroquine cytotoxicity, agent 4 × 10^-2 M",26
same,"Factor of Protection, Propranolol (ID50 with agent / ID50 alone)","human skin fibroblasts [1]; against propranolol cytotoxicity, agent 4 × 10^-2 M, pre-treatment of 2 hours with agent",1.3
Gramicidin D,"Factor of Protection, Chloroquine (ID50 with agent / ID50 alone)",human skin fibroblasts [1]; [5],31
same,"Factor of Protection, Propranolol (ID50 with agent / ID50 alone)",human skin fibroblasts [1]; [6],1
